Biological target: T1, Taste receptor type 2 member 8 (Homo sapiens, UniProt Q9NYW2)
T1 sequence (Q9NYW2 whole entry): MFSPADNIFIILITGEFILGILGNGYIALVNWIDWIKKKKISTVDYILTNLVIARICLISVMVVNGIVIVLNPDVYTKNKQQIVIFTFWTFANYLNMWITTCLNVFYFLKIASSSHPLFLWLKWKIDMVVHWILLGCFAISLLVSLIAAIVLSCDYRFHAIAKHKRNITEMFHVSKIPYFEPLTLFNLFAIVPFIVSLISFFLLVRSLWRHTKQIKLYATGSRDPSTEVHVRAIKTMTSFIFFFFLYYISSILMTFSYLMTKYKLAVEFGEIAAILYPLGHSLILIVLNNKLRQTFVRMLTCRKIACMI
Assay: Fluorescence Polarization Assays: In another embodiment, Fluorescence Polarization ("FP") based assays may be used to detect and monitor ligand binding. Fluorescence polarization is a versatile laboratory technique for measuring equilibrium binding, nucleic acid hybridization, and enzymatic activity. […] Generally, this technique can be used to measure polarization values of fluorophores from low picomolar to micromolar levels.

Cc1noc(C)c1Cn1cc(N2CCCN(Cc3ccccc3)C2=O)cn1
IC50: 1650 nM

From ChEMBL document CHEMBL3886188, “Identification of human T2R receptors that respond to bitter compounds that elicit the bitter taste in compositions, and the use thereof in assays to identify compounds that inhibit (block) bitter taste in compositions and use thereof” (2016)
